Here are results for 2 compounds from patent US11638427B2, “Methods and compositions for altering secondary metabolites in plants” (Impello Biosciences, Inc, priority 2020, dated 2023).

Structures are written as SMILES.

For data set [1], the system named is hemp clones cv. Cherry in the vegetative stage. Nature of the data set: Root drench of MeJA or MDJ, phytotoxicity. It counts as in vivo, Cannabis spp. As to conditions: for plants deceased in 72 hours: 250 mL, n=4; for phytotoxicity to plants in the vegetative stage: root drench, concentrations above 10 mM, within 72 hours. As for the experimental part:
To investigate if higher concentrations of jasmonate elicitors would be tolerated in cannabis by root drench, four different concentrations, [7.5 mM], [10 mM], [15 mM] and [20 mM] were applied to hemp clones (n=4 per treatment group, cv.: Cherry, CBDRx) in the vegetative stage. Treatment concentrations were prepared from methyl dihydrojasmonate (MDJ, TCI, CAS No.: 24851-98-7) and methyl Jasmonate (MeJA, TCI, CAS No.: […]) with 1% TWEEN®-20 added (VWR, CAS No.: […]).
The roots of each clone in each treatment group were treated with 250 mL of each compound once per week. Plants were grown under a total of 12 Boost (Thrive Agritech, NY) 130-watt LED lights set to 18L: 6D photoperiod during the vegetative phase (2 weeks) or until phytotoxicity observed.

Data set [2] concerns CBDRx Cherry variety. Nature of the data set: MeJA vs MDJ weekly foliar spray, terpene analysis. The data set is classed as in vivo, Cannabis spp. The following applies: 4.25 mM or 7.5 mM weekly foliar spray. On the procedure: (§1) To directly compare the efficacy of MeJA and MDJ, MeJA and MDJ were applied as a foliar spray once per week at either 4.25 mM or 7.5 mM concentrations to two high-CBD cannabis varieties. Clones from CBDRx Cherry variety and Sunrise Genetics' F2 variety were transplanted into 1-gallon pots with Red's soil and put into vegetative light cycle (18L/6D) on 4/12/21. All plants had two weeks in vegetative light cycle and were moved to flowering light cycle (12L/12D) on 4/26/21 for six weeks. Foliar applications started in week three of growth, [at flower initiation?]. Plants were then moved to a flowering light cycle. Each treatment group comprises three plants, including the control. Throughout the growing period, all plants were watered with JACK'S NUTRIENTS®. Plants were harvested on 6/7/21.
(§2) Treatments: Each concentration was prepared from a one molar stock solution with TWEEN®-20. Sprays were prepared weekly and diluted with RO water. Each plant was sprayed till dripping, each receiving approximately 75-100 ml.

The test system of data set [3] is Sunrise Genetics' F2 variety. Nature of the data set: MeJA vs MDJ weekly foliar spray, terpene analysis. The data set is classed as in vivo, Cannabis spp. The following applies: for eucalyptol / guaiol / α-bisabolol: 4.25 mM or 7.5 mM MDJ, or 7.5 mM MeJA; for D-Limonene / Linalool / cis-B-ocimene: all applications (4.25 mM and 7.5 mM). On the procedure: as §1, §2

The subject of data set [4] is Diaporthe rudis. Description: Mold growth on jasmonate-infused plates, mold 3 isolated from avocado. It counts as cell-based. As to conditions: various concentrations in plates. On the procedure: MDJ (TCI, CAS No.: 24851-98-7) and CJ were infused into potato dextrose agar (PDA, VWR Cat No.: 90003-494) petri dishes (100×15 mm VWR, Cat No: 25384-094) at concentrations ranging from 1 mM, 4.25 mM, and 10 mM. Each treatment was prepared using a technical grade stock solution of pure chemical (CJ or MDJ) diluted with TWEEN®-20 (VWR, CAS No.: […]). Culturable oyster mushroom and seedling mold served to create fungal mycelial plugs using a sterile 1 mL pipette tip (Eppendorf, Cat No.: 022491458) held upside down. The tips were used to make circle excisions (i.e., fungal plugs) from a mycelial mat grown on PDA with no biochemical infusions. Fungal pugs were then transferred to PDA infused with varying concentrations of CJ or MDJ, and control plates (no CJ or MDJ infusion) to monitor fungal growth at room temperature over time.
Based on the above results in Cannabis spp., additional fungi from various crops was sampled and tested. Plates comprising various concentrations of MDJ or MJ were prepared as described above.

[5] abbreviates: 4.25 mM or 7.5 mM weekly foliar spray.

Regarding `CCCCCC1C(=O)CCC1CC(=O)OC` (stereo not drawn) [MDJ, methyl dihydrojasmonate], in data set [1] (root drench 10 mM), the “plants deceased in 72 hours” value is on record as “three out of four”. The “plants deceased in 72 hours” value in data set [1] (root drench 15 mM) was “all four”. For the same compound, in data set [1] (root drench 20 mM), the “plants deceased in 72 hours” value is “all four”. For the same compound, the “phytotoxicity to plants in the vegetative stage” value in data set [1] was “phytotoxic”. Moreover, in data set [2], the camphene result is “significantly lowered”, the total terpene content result is given as “significantly lowered”, the α-pinene entry is given as “significantly lowered” and the β-myrcene content result is listed as “significantly lowered”. Moreover, the β-pinene result in data set [2] is given as “significantly lowered”. In data set [3], the eucalyptol entry is listed as “Significant increases”, the guaiol result is listed as “Significant increases”, the α-bisabolol result is on record as “Significant increases” and the D-Limonene result is given as “significantly decreased”. In data set [3], the Linalool entry is “significantly increased” and the cis-B-ocimene result is recorded as “significantly decreased”. In data set [3] (setting [5]), the camphene entry is on record as “significantly lowered”, the p-pinene result is “significantly lowered”, the total terpene content result is recorded as “significantly lowered” and the α-pinene entry is on record as “significantly lowered”. For the same compound, the β-myrcene content result in data set [3] (setting [5]) is recorded as “significantly lowered”. In addition, the “growth of mold isolated from avocado (mold 3)” value in data set [4] is on record as “effective at preventing the growth”.
As for `CC/C=C\C[C@H]1C(=O)CC[C@@H]1CC(=O)OC` [MeJA, Methyl Jasmonate], in data set [1] (root drench 15 mM), the “plants deceased in 72 hours” value is “three out of four”. Further, the “plants deceased in 72 hours” value in data set [1] (root drench 20 mM) was “three out of four”. The “phytotoxicity to plants in the vegetative stage” value in data set [1] is “phytotoxic”. In data set [2], the camphene result was “neither concentration of MeJA significantly altered”, the total terpene content entry was “neither concentration of MeJA significantly altered”, the α-pinene entry is given as “neither concentration of MeJA significantly altered” and the β-pinene result is “neither concentration of MeJA significantly altered”. In addition, in data set [3], the eucalyptol result is reported as “Significant increases”, the guaiol entry was “Significant increases”, the α-bisabolol result is on record as “Significant increases” and the D-Limonene entry was “significantly decreased”. For the same compound, in data set [3], the Linalool entry is recorded as “significantly increased” and the cis-B-ocimene entry is listed as “significantly decreased”. For the same compound, the “β-myrcene, α-pinene, camphene, β-pinene and total terpene content” value in data set [3] (only with the higher concentration of 7.5 mM) is listed as “significant reduction”. Further, the “growth of mold isolated from avocado (mold 3)” value in data set [4] is listed as “effective at preventing the growth”.
